± gives the standard deviation of the averaged measurements.
Experiments:
[1] = compound: CN1CCN(c2nc(C3=C(c4c[nH]c5ccccc45)C(=O)NC3=O)c3ccccc3n2)CC1 [SOTRASTAURIN/AEB071]; assay: surviving fraction relative to DMSO-only wells; higher = less growth inhibition; conditions: exposure time: 5 days
In short: (§1)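 Surviving fraction was calculated by normalising CellTiter-Glo luminescence to the median of DMSO-only wells. Tumour cell lines in log phase were seeded in 384-well plates at 250–500 cells per well, and 24 hours later were exposed continuously for five days to inhibitors at 0.5, 1, 5, 10, 50, 100, 500 and 1000 nM.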

[2] = compound: CNCc1ccc(-c2[nH]c3cc(F)cc4c3c2CCNC4=O)cc1; assay: as above; conditions: exposure time: 5 days
In short: as §1

Test System	surviving fraction ([1]; 0.5 nM)	surviving fraction ([1]; 1 nM)	surviving fraction ([1]; 5 nM)	surviving fraction ([1]; 10 nM)	surviving fraction ([1]; 50 nM)	surviving fraction ([1]; 100 nM)	surviving fraction ([1]; 500 nM)	surviving fraction ([1]; 1000 nM)	surviving fraction ([2]; 0.5 nM)	surviving fraction ([2]; 1 nM)	surviving fraction ([2]; 5 nM)	surviving fraction ([2]; 10 nM)	surviving fraction ([2]; 50 nM)	surviving fraction ([2]; 100 nM)	surviving fraction ([2]; 500 nM)	surviving fraction ([2]; 1000 nM)
CAL72 BONE	1.1 ± 0.021	1.09 ± 0.029	1.05 ± 0.029	1.08 ± 0.014	1.05 ± 0.04	1.08 ± 0.072	1.06 ± 0.044	1.1 ± 0.015	1.09 ± 0.041	1.072 ± 0.0085	1.1 ± 0.026	1.08 ± 0.016	0.999 ± 0.073	0.961 ± 0.075	0.962 ± 0.032	0.902 ± 0.019
CAL120 BREAST	1.03 ± 0.042	1.01 ± 0.054	1.01 ± 0.03	1.02 ± 0.035	0.985 ± 0.051	0.955 ± 0.035	0.976 ± 0.046	0.981 ± 0.009	1.04 ± 0.047	0.995 ± 0.075	0.984 ± 0.044	1.01 ± 0.043	0.945 ± 0.026	0.929 ± 0.056	0.926 ± 0.057	0.918 ± 0.043
CASKI CERVIX	0.955 ± 0.051	0.962 ± 0.08	0.974 ± 0.035	0.906 ± 0.026	0.989 ± 0.12	0.898 ± 0.047	0.975 ± 0.021	0.863 ± 0.036	0.893 ± 0.022	0.968 ± 0.014	0.992 ± 0.015	0.939 ± 0.024	0.89 ± 0.03	0.898 ± 0.077	0.923 ± 0.12	0.848 ± 0.034
CHLA90 AUTONOMIC GANGLIA	0.975 ± 0.024	0.962 ± 0.046	1.02 ± 0.074	0.943 ± 0.081	1.05 ± 0.12	1 ± 0.083	1.06 ± 0.097	0.978 ± 0.17	0.97 ± 0.049	1.01 ± 0.068	0.961 ± 0.039	0.987 ± 0.043	0.993 ± 0.095	1.03 ± 0.023	1.01 ± 0.038	1.03 ± 0.033
CME SYNOVIAL	1.28 ± 0.26	1.3 ± 0.18	1.31 ± 0.13	1.38 ± 0.22	0.978 ± 0.13	1.21 ± 0.2	1.14 ± 0.059	1.12 ± 0.059	1.16 ± 0.072	1.25 ± 0.097	1.11 ± 0.18	1.11 ± 0.18	0.693 ± 0.18	0.556 ± 0.094	0.373 ± 0.08	0.301 ± 0.015
